According to patent US5177204A, “Derivatives of 4-(2,4-difluorbiphenylyl)-2-methyl-4-oxobutanoic acid” (Vyzkumng, USTAV pro farmacii a biochemii, Statni podnik, priority 1990, dated 1993):
Where a name gives a salt, the structure may show the parent alone.

Tests used:
[1] = Suppression of carragenine oedema (CE), anti-inflammatory effect; type: in vivo; settings: for CE inhibition %: Table I, oral suspension in 0.5% methylcellulose, dose equimolar to flobufen 20 mg/kg, 1 hour upon application; for CE suppression %: Table II
Procedure: (§1) ^b Antiinflammatory and analgesic activity was evaluated in compariso
(§2) with flobufen in equimolar doses, while flobufen was administered in a
(§3) dose of 20 mg/kg in the evaluation of antiinflammatory activity and in a
(§4) dose of 100 mg/kg in the evaluation of analgesic activity; the substances
(§5) were administered orally as a suspension in a 0.5% solution of
(§6) methylcellulose and the oedema was measured 1 hour upon application;
^c Suppression of the carraganine oedema was assessed according to
Winter J.: Proc. Soc. exptl. Biol. Med., 111, 544 (1962);
(§7) ^b for oral and intramuscular application an aqueous solution of
(§8) substance 17640 was used in said dose;
(§9) ^c the standard, i.e. 4(2,4-difluorobiphenylyl)-2-methyl-4-oxobutanic
(§10) acid was administered as a suspension in a 0.5% methylcellulose solution.

[2] = system: male mice; test: Acute toxicity, mortality after a single dose (oral or intravenous); type: in vivo; settings: 500 mg/kg, 10080 min; for % mortality: Table I, single oral dose of 500 mg/kg, day 7 after application
Procedure: (§11) ^a Acute oral toxicity of each substance was evaluated after a single
(§12) dose of 500 mg/kg in male mice. The mortality in % is for day 7 after
(§13) ^a Acute toxicity was evaluated after a single dose of substance 1764
(§14) in male mice, namely orally as an aqueous solution, and intravenously in
(§15) physiological saline solution. Mortality was followed up in groups of 10
(§16) animals for 7 days upon oral application and for 3 days upon intravenous

[3] = Freund adjuvant test, inhibition of adjuvant oedema (FA), anti-inflammatory effect; type: in vivo; settings: for FA inhibition %: Table I, oral suspension in 0.5% methylcellulose, dose equimolar to flobufen 20 mg/kg; for FA suppression %: Table II, oral
Procedure: as §1, §2, §3, §4, §5, §6
^d Antiinflammatory effect in the Freundadjuvant test was assessed
according to Horakova Z., Grimova J.: Cs. Fysiol. 17, 137 (1968);
as §7, §8, §9, §10

[4] = Analgesic activity, intraperitoneal irritation with 0.7% acid; type: in vivo, male mice; settings: for Pain inhibition %: Table I, oral suspension in 0.5% methylcellulose, dose equimolar to flobufen 100 mg/kg, male mice; for Pain suppression %: Table II
Procedure: as §1, §2, §3, §4, §5
^e Analgesic activity was evaluated in the test of intraperitoneal
irritation with 0.7% acid in male mice according to Witkin L. et al.: J.
as §7, §8, §9, §10

[5] = Acute toxicity, mortality after a single dose (oral or intravenous); type: in vivo; settings: mouse, male mice; for mortality at 168 h: in vivo, po, 500 mg/kg, Table I, single oral dose of 500 mg/kg, day 7 after application
Procedure: as §11, §12, §13, §14, §15, §16

Compound	CE inhibition % [1] [%]	% mortality [2] [%]	FA inhibition % [3] [%]	Pain inhibition % [4] [%]	mortality at 168 h [5] [%]	other results
CC(CC(=O)c1ccc(-c2ccc(F)cc2F)cc1)C(=O)O (stereo not drawn) [VUFB 17629, Cyclohexylammonium Salt of 4-/2,4-Difluorobiphenylyl/-2-methyl-4-oxobutan Acid]	47	0	53	58	–	–
CCCCNC(=O)C(C)CC(=O)c1ccc(-c2ccc(F)cc2F)cc1 (stereo not drawn) [VUFB 18398, n-Butylamide of 4-/2,4-Difluorobiphenylyl/-2-methyl-4-oxobutan Acid]	33	–	44	33	0	–
CCOC(=O)C(C)CC(=O)c1ccc(-c2ccc(F)cc2F)cc1 (stereo not drawn) [VUFB 18391]	49	–	55	38	0	–
CC(CC(=O)c1ccc(-c2ccc(F)cc2F)cc1)C(=O)O (stereo not drawn) [VUFB 18404]	44	30	51	35	–	–
CC(CC(=O)c1ccc(-c2ccc(F)cc2F)cc1)C(=O)O (stereo not drawn) [VUFB 18405, Potassium Salt of 4-/2,4-Difluorobiphenylyl/-2-methyl-4-oxobutan Acid]	39	20	50	47	–	–
CC(CC(=O)c1ccc(-c2ccc(F)cc2F)cc1)C(=O)O (stereo not drawn) [VUFB 17640]	–	–	–	–	–	CE suppression % ([1]; oral, dose 30, aqueous solution): 46%; CE suppression % ([1]; parenteral (intramuscular), dose 1, aqueous solution): 21%; CE suppression % ([1]; parenteral (intramuscular), dose 10, aqueous solution): 40%; mortality at 72 h ([5]; physiological saline, iv, 100 mg/kg, Table II, parenteral (intravenous), dose 100, physiological saline, 3 days): 0%; FA suppression % ([3]; dose 30, aqueous solution): 58%; Pain suppression % ([4]; oral, dose 150, aqueous solution): 77%; Pain suppression % ([4]; parenteral (intramuscular), dose 80, aqueous solution): 48%
CC(CC(=O)c1ccc(-c2ccc(F)cc2F)cc1)C(=O)O (stereo not drawn) [Flobufen, 4(2,4-difluorobiphenylyl)-2-methyl-4-oxobutanic acid, reference compound]	46	50	65	79	–	CE suppression % ([1]; oral, dose 20, suspension in 0.5% methylcellulose): 46%; Acute toxicity, % mortality ([2]; Table II, oral, dose 500, aqueous solution (flobufen: suspension in 0.5% methylcellulose), 7 days): 50%; FA suppression % ([3]; dose 20, suspension in 0.5% methylcellulose): 65%; Pain suppression % ([4]; oral, dose 100, suspension in 0.5% methylcellulose): 79%
CCOC(=O)CNC(=O)C(C)CC(=O)c1ccc(-c2ccc(F)cc2F)cc1 (stereo not drawn) [VUFB 18392]	40	–	51	41	0	–
